Measurements reported in patent US6576260B2 (Gruenenthal GmbH, priority 1999, dated 2003).

Assay: Intrinsic active substance release in water (USP <1087> intrinsic dissolution)
Type: physicochemical
Settings: demineralized water, 37° C.±0.5° C.; gradient of cumulative release up to 10% released
Protocol: The intrinsic release of each of the two active substances is calculated from the gradient of the cumulative active substance release up to and including the time at which 10% of the […] have been released. It is given below as the release rate in mg·min^−1·cm^−2.

SMILES	Intrinsic release in water (release rate) [mg · min^−1 · cm^−2]
COc1cccc([C@@]2(O)CCCC[C@@H]2CN(C)C)c1.Cl (racemic) [Tramadol hydrochloride, (1RS,2RS)-2-[(dimethylamino)methyl]-1-(3-methoxyphenyl)cyclohexanol hydrochloride]	21
COc1cccc(C2(O)CCCCC2CN(C)C)c1.O=C1NS(=O)(=O)c2ccccc21 (centres unmarked) [Tramadol saccharinate, tramadol saccharinate]	2
